According to PubChem BioAssay (NCI):
Where “and” joins values, the source holds several entries; their conditions need not be identical. Identical values can stand only once.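 Results reflect a 48-hour exposure of cells in 96-well plates to compound at five concentrations. GI50 = concentration required for 50% inhibition of growth. Definition used: TGI = concentration required for complete inhibition of growth.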

Assays:
Assay in all cases: NCI anticancer screen, dose series, 48 h
SF-539 CNS = system: SF-539 CNS
K-562 leukemia = system: K-562 leukemia
TK-10 renal = system: TK-10 renal
OVCAR-8 ovarian = system: OVCAR-8 ovarian
HCT-15 colon = system: HCT-15 colon
SNB-75 CNS = system: SNB-75 CNS
OVCAR-3 ovarian = system: OVCAR-3 ovarian
U251 CNS = system: U251 CNS
HOP-62 NSCLC = system: HOP-62 NSCLC
HOP-92 NSCLC = system: HOP-92 NSCLC

SMILES	GI50 (SF-539 CNS)	TGI (SF-539 CNS)	GI50 (K-562 leukemia) [µM]	TGI (K-562 leukemia) [µM]	GI50 (TK-10 renal) [µM]	TGI (TK-10 renal) [µM]	GI50 (OVCAR-8 ovarian)	TGI (OVCAR-8 ovarian) [µM]	GI50 (HCT-15 colon) [µM]	TGI (HCT-15 colon) [µM]	GI50 (SNB-75 CNS) [µM]	TGI (SNB-75 CNS)	GI50 (OVCAR-3 ovarian) [µM]	TGI (OVCAR-3 ovarian) [µM]	GI50 (U251 CNS) [µM]	TGI (U251 CNS) [µM]	GI50 (HOP-62 NSCLC) [µM]	TGI (HOP-62 NSCLC) [µM]	GI50 (HOP-92 NSCLC)	TGI (HOP-92 NSCLC)
COc1cc2c(cc1OCCCN1CCN(c3cc(=O)oc4c(C)c(OC)ccc34)CC1)N=C[C@@H]1CCCN1C2=O	1.73 µM	7.97 µM	0.456	> 20.9	1.67	> 100	2.62 µM	> 100	3.06	> 37.6	0.866	3.22 µM	0.471	3.65	1.58	> 100	1.64	10.3	0.329 µM	1.81 µM
COc1ccc(C(=O)CC(c2ccc(OC)c(OC)c2)c2c(O)c3ccccc3oc2=O)cc1OC (stereo not given)		> 100 µM		> 100		> 100		> 100		> 100		> 100 µM		> 100		> 100		> 100		> 100 µM
Clc1cc(Cl)cc(Nc2nc3ccccc3nc2-c2cccs2)c1		> 100 µM				75.6		27		> 100		> 100 µM		72				> 100		38.1 µM
COc1ccc(/C=C\c2cc(OC)c(OC)c(OC)c2)cc1OCC(=O)Nc1nc2ccc(OC(F)(F)F)cc2s1	2.28 µM	6.13 µM	3.43	> 100	18.6	> 100	5 µM	> 100	3.23	> 100	1.56	7.68 µM	3.37	11.3	3.37	> 100	7.09	> 100	2.74 µM	45.1 µM
C[Si]12OCCCN(CCO1)CCO2		> 100 µM		> 100		> 100		> 100				> 100 µM		> 100		> 100				> 100 µM
CC1CC2(CCC1OCc1ccccc1)OCCO2 (stereo not given)		> 100 µM		> 100		> 100		> 100		> 100				> 100		> 100		> 100		> 100 µM
CN(C)S(=O)(=O)c1ccc(Nc2ccc(O)c3c2C(=O)c2c([N+](=O)[O-])ccc(O)c2C3=O)cc1				> 100		> 100		> 100		> 100		> 100 µM		> 100		> 100		> 100		> 100 µM
Cc1ccc(Oc2nc3ccccc3cc2-c2nnc(Cn3c(COc4ccccc4)nc4ccccc43)o2)cc1			2.59	> 100	3.91	9.92	2.12 µM	7.52	2.14	7.69	2.16	9.74 µM	2.41	6.65	1.58	3.62	2.98	13	1.27 µM	5.37 µM
N/C(=N\c1nc2ccccc2s1)NC(=O)Nc1cccc2ccccc12	0.242 µM	0.768 µM	0.0765	> 100			0.521 µM	> 100	0.126	> 100	0.198	1.1 µM	0.228	1.09			0.406		1.81 µM	> 47.3 µM
N=C(N)c1ccc(-c2ccc(-c3ccc(F)cc3)o2)o1	1.63 µM	3.08 µM			1.55	2.92			0.631	2.08	1.55	3.49 µM	1.84	4.16	1.6	3.08	1.6	3.25	1.21 µM	2.95 µM
COc1ccc(-c2nc3sc4c(c3c(=O)[nH]2)CCCC4)c2ccccc12	0.211 µM and 0.0213 µM	0.544 µM and 0.0746 µM		> 100	3.53		0.474 µM and 0.0475 µM	> 100		> 100		0.792 µM and 1.61 µM			0.369		0.629		0.0957 µM and 0.599 µM	2.37 µM and 7.9 µM
O=[N+]([O-])c1cccc(-c2cc(-c3cc(Br)ccc3O)[nH]n2)c1	2.89 µM	11 µM	1.66	4.57	2.26	6.71	2.89 µM	10.5	2.53	12.9	2.68	14.5 µM	2.1	5.8	3.24	11.9			2.38 µM	8.08 µM
O=C1OCC2=C1C(c1cccc(C(F)(F)F)c1)c1cc3c(cc1N2CCO)CCC3 (stereo not given)	0.132 µM	0.46 µM	0.174	28.1	0.359	10.9	0.203 µM	8.31	0.15	6.02			0.161	2.21	0.199	7.92	0.178	7.74	1.74 µM	10.3 µM
Cc1c(O)c(=O)ccn1CCO				> 100		> 100		> 100		> 100		> 100 µM		> 100		> 100		> 100		> 100 µM
C=CCN(CC=C)CC(C(C)=O)C(c1ccccc1)c1c(O)c2ccccc2oc1=O (stereo not given)		> 100 µM		> 100		> 100		> 100		> 100		> 100 µM				> 100		> 100		> 100 µM
O=C(O)CCCNS(=O)(=O)c1ccc2ccccc2c1		> 100 µM		> 100		> 100		> 100		> 100		> 100 µM		> 100		> 100				> 100 µM
CC(=O)OC12CC(C)C3(O)C4C=C(C)C(=O)[C@@]4(O)CC(CO)=C[C@H]3C1C2(C)C (stereo not given in full)	> 1000 µM	> 1000 µM					> 1000 µM	> 1000	> 1000	> 1000	> 1000	> 1000 µM	> 1000	> 1000	> 1000	> 1000			45.4 µM	> 1000 µM
COc1cc2c3c(n(C)c(=O)c2cc1OC)-c1cc2c(cc1/C3=C/[C@H](N)CCCCN)OCO2	0.742 µM	4.62 µM	4.68	> 100	3.95	21.5	2.27 µM	23.4	6.8	> 86.4	3.74	27.7 µM	1.45	9.89			1.34	11.6	4.48 µM	> 50.9 µM
